{"source": "patent US20140288044A1", "about": "“COMPOSITIONS AND THERAPEUTIC USES OF IKK-RELATED KINASE EPSILON AND TANKBINDING KINASE 1 INHIBITORS” (Alzheimer's Institute of America, Inc., priority 2011, published 2014)", "data": [{"target": "T1, IKKε (Homo sapiens, UniProt Q14164)", "T1 construct": "His-tag (in-house Sf9 preparation) or GST-tag (purchased Invitrogen preparation); these are alternatives, not both on one protein; host or cells: Sf9 cells", "T1 sequence (Q14164 1-716)": "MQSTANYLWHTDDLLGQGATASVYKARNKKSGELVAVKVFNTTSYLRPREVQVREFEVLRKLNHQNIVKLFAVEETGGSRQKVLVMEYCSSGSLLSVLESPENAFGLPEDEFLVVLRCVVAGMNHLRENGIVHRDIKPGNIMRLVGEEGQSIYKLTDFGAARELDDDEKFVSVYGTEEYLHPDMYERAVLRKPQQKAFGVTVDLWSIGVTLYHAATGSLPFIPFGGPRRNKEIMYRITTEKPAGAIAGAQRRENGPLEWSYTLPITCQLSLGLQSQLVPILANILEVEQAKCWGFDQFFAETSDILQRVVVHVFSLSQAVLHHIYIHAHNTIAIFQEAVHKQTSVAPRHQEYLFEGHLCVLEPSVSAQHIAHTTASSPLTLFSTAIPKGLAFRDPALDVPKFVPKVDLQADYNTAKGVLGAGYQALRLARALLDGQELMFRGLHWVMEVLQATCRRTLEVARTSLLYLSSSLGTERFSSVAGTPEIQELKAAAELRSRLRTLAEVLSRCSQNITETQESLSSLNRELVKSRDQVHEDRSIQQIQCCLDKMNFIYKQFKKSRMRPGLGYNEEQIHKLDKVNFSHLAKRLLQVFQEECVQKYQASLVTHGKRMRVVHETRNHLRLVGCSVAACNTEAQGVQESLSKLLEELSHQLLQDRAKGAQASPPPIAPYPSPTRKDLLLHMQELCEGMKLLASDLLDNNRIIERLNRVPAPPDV", "assay": "In-vitro IKKε kinase assay (radiolabelled ATP, filterplate)", "assay_type": "biochemical", "settings": "\"sensitized\" assay; read-out: IC50, inhibition of the kinase activity of IKKε", "experimental": "(§1) IKKε enzyme was produced as a His-tag fusion in Sf9 cells or purchased as a GST-tag fusion (Invitrogen, Carlsbad, Calif.). TBK1 enzyme was produced as a His-tag fusion in Sf9 cells. Kinase reactions were carried out in reaction buffer using myelin basic protein (Millipore, Ballerica, Mass.), casein or dephosphorylated casein (Sigma, St. Louis, Mo.) as substrate at an ATP concentration equal to twice the Km,ATP value for each enzyme, corresponding to 32 μM ATP for IKKε and 60 μM ATP for TBK1. Radiolabelled [γ^33]ATP (PerkinElmer, Waltham, Mass.) in the amount of […] (IKKe, “normal”) or 0.7 μCi (IKKε, “sensitized”) or 1.25 μCi (TBK1) was added to each assay. Final enzyme concentrations were 0.1 or 0.015 μg/ml (IKKε) and 0.1 or 0.02 μg/ml (TBK1) for the “normal” and “sensitized” assay, respectively, and “sensitized” assays were conducted using only dephosphorylated casein as substrate. Test compounds (or DMSO solvent as a control) were added prior to initiation of the reactions. Reactions were terminated after 30-45 minutes by adding 3% phosphoric acid. Terminated reactions were transferred to P-81 cellulose phosphate filterplates (Whatman, Inc., Piscataway, N.J.) and washed with 1% phosphoric acid on a vacuum apparatus. After air drying, scintillant (PerkinElmer, Waltham, Mass.) was added and the plates were read on a PerkinElmer TopCount NXT instrument. Counts were normalized to DMSO controls after background subtraction.", "units": {"IC50": "nM"}, "values": [{"smiles": "COC1CN(C(=O)c2csc(Nc3nccc(-c4ccc(OC5CCOCC5)c(C#N)c4)n3)n2)C1", "note": "[Example Compound 104, 5-[2-({4-[(3-Methoxyazetidin-1-yl)carbonyl]-1,3-thiazol-2-yl}amino)pyrimidin-4-yl]-2-(tetrahydro-2H-pyran-4-yloxy)benzonitrile]", "IC50": "< 5"}, {"smiles": "C[C@H](O)C(=O)N1CCC(Oc2ccc(-c3ccnc(Nc4ccc(N5CCOCC5)nc4)n3)cc2C#N)CC1", "note": "[Example Compound 127, 2-({1-[(2S)-2-Hydroxypropanoyl]piperidin-4-yl}oxy)-5-(2-{[6-(morpholin-4-yl)pyridin-3-yl]amino}pyrimidin-4-yl)benzonitrile]", "IC50": "< 5"}, {"smiles": "COC1CN(c2cc(Nc3nccc(-c4ccc(NC(=O)C5CC5)c(C#N)c4)n3)ccn2)C1", "note": "[Example Compound 142, N-[2-Cyano-4-(2-{[2-(3-methoxyazetidin-1-yl)pyridin-4-yl]amino}pyrimidin-4-yl)phenyl]cyclopropanecarboxamide]", "IC50": "< 5"}, {"smiles": "Cc1ccc(Nc2nccc(-c3ccc(NC(=O)C4CC4)c(C#N)c3)n2)cn1", "note": "[Example Compound 149, N-(2-Cyano-4-{2-[(6-methylpyridin-3-yl)amino]pyrimidin-4-yl}phenyl)cyclopropanecarboxamide]", "IC50": "< 5"}, {"smiles": "COCCNc1ncc(-c2ccc(Nc3nccc(-c4ccc(OC5CCOCC5)c(C#N)c4)n3)cn2)cn1", "note": "[Example Compound 187, 5-{2-[(6-{2-[(2-Methoxyethyl)amino]pyrimidin-5-yl}pyridin-3-yl)amino]pyrimidin-4-yl}-2-(tetrahydro-2H-pyran-4-yloxy)benzonitrile]", "IC50": "< 5"}, {"smiles": "N#Cc1cc(-c2ccnc(Nc3ccc(-c4cn[nH]c4)nc3)n2)ccc1OC1CCOCC1", "note": "[Example Compound 188, 5-(2-{[6-(1H-Pyrazol-4-yl)pyridin-3-yl]amino}pyrimidin-4-yl)-2-(tetrahydro-2H-pyran-4-yloxy)benzonitrile]", "IC50": "< 5"}, {"smiles": "Cn1cc(-c2ccc(Nc3nccc(-c4ccc(OC5CCOCC5)c(C#N)c4)n3)cn2)cn1", "note": "[Example Compound 189, 5-(2-{[6-(1-Methyl-1H-pyrazol-4-yl)pyridin-3-yl]amino}pyrimidin-4-yl)-2-(tetrahydro-2H-pyran-4-yloxy)benzonitrile]", "IC50": "< 5"}, {"smiles": "N#Cc1cc(-c2ccnc(Nc3ccc(/C=C/CN4CCOCC4)nc3)n2)ccc1OC1CCOCC1", "note": "[Example Compound 190, 5-[2-({6-[(1E)-3-(Morpholin-4-yl)prop-1-en-1-yl]pyridin-3-yl}amino)pyrimidin-4-yl]-2-(tetrahydro-2H-pyran-4-yloxy)benzonitrile]", "IC50": "< 5"}, {"smiles": "N#Cc1cc(-c2ccnc(Nc3ccnc(N4CCC[C@@H]4CO)c3)n2)ccc1OC1CCOCC1", "note": "[Example Compound 194, 5-[2-({2-[(2R)-2-(Hydroxymethyl)pyrrolidin-1-yl]pyridin-4-yl}amino)pyrimidin-4-yl]-2-(tetrahydro-2H-pyran-4-yloxy)benzonitrile]", "IC50": "< 5"}, {"smiles": "CN(Cc1ccc(Nc2nccc(-c3ccc(OC4CCOCC4)c(C#N)c3)n2)cn1)C(=O)CO", "note": "[Example Compound 195, N-{[5-({4-[3-Cyano-4-(tetrahydro-2H-pyran-4-yloxy)phenyl]pyrimidin-2-yl}amino)pyridin-2-yl]methyl}-2-hydroxy-N-methylacetamide]", "IC50": "< 5"}, {"smiles": "CN(Cc1ccc(Nc2nccc(-c3ccc(OC4CCOCC4)c(C#N)c3)n2)cn1)C(=O)C1(N)CC1", "note": "[Example Compound 196, 1-Amino-N-{[5-({4-[3-cyano-4-(tetrahydro-2H-pyran-4-yloxy)phenyl]pyrimidin-2-yl}amino)pyridin-2-yl]methyl}-N-methylcyclopropanecarboxamide]", "IC50": "< 5"}, {"smiles": "CN(Cc1ccc(Nc2nccc(-c3ccc(OC4CCOCC4)c(C#N)c3)n2)cn1)C(=O)C1(O)CC1", "note": "[Example Compound 197, N-{[5-({4-[3-Cyano-4-(tetrahydro-2H-pyran-4-yloxy)phenyl]pyrimidin-2-yl}amino)pyridin-2-yl]methyl}-1-hydroxy-N-methylcyclopropanecarboxamide]", "IC50": "< 5"}, {"smiles": "C[C@@H](O)C(=O)N(C)Cc1ccc(Nc2nccc(-c3ccc(OC4CCOCC4)c(C#N)c3)n2)cn1", "note": "[Example Compound 198, (2R)-N-{[5-({4-[3-Cyano-4-(tetrahydro-2H-pyran-4-yloxy)phenyl]pyrimidin-2-yl}amino)pyridin-2-yl]methyl}-2-hydroxy-N-methylpropanamide]", "IC50": "< 5"}, {"smiles": "N#Cc1cc(-c2ccnc(Nc3ccc(-n4ccnc4)nc3)n2)ccc1OC1CCOCC1", "note": "[Example Compound 200, 5-(2-{[6-(1H-Imidazol-1-yl)pyridin-3-yl]amino}pyrimidin-4-yl)-2-(tetrahydro-2H-pyran-4-yloxy)benzonitrile]", "IC50": "< 5"}, {"smiles": "Cn1cc(-c2cc(Nc3nccc(-c4ccc(O[C@@H]5CCN(C(=O)CO)C5)c(C#N)c4)n3)ccn2)cn1", "note": "[Example Compound 204, 2-{[(3R)-1-(Hydroxyacetyl)pyrrolidin-3-yl]oxy}-5-(2-{[2-(1-methyl-1H-pyrazol-4-yl)pyridin-4-yl]amino}pyrimidin-4-yl)benzonitrile]", "IC50": "< 5"}, {"smiles": "CC(=O)N(C)Cc1ccc(Nc2nccc(-c3ccc(OC4CCOCC4)c(C#N)c3)n2)cn1", "note": "[Example Compound 208, N-{[5-({4-[3-Cyano-4-(tetrahydro-2H-pyran-4-yloxy)phenyl]pyrimidin-2-yl}amino)pyridin-2-yl]methyl}-N-methylacetamide]", "IC50": "< 5"}, {"smiles": "CC(c1ccc(Nc2nccc(-c3ccc(OC4CCOCC4)c(C#N)c3)n2)cn1)N1CC(O)C1", "note": "(stereo not shown) [Example Compound 214, 5-[2-({6-[1-(3-Hydroxyazetidin-1-yl)ethyl]pyridin-3-yl}amino)pyrimidin-4-yl]-2-(tetrahydro-2H-pyran-4-yloxy)benzonitrile]", "IC50": "< 5"}, {"smiles": "N#Cc1cc(-c2ccnc(Nc3ccnc(CN4CC(O)C4)c3)n2)ccc1OC1CCOCC1", "note": "[Example Compound 218, 5-[2-({2-[(3-Hydroxyazetidin-1-yl)methyl]pyridin-4-yl}amino)pyrimidin-4-yl]-2-(tetrahydro-2H-pyran-4-yloxy)benzonitrile]", "IC50": "< 5"}, {"smiles": "N#Cc1cc(-c2ccnc(Nc3ccnc(CN4CCC(F)(F)C4)c3)n2)ccc1OC1CCOCC1", "note": "[Example Compound 220, 5-[2-({2-[(3,3-Difluoropyrrolidin-1-yl)methyl]pyridin-4-yl}amino)pyrimidin-4-yl]-2-(tetrahydro-2H-pyran-4-yloxy)benzonitrile]", "IC50": "< 5"}, {"smiles": "Cc1ccc(Nc2nccc(-c3ccc(OC4CCN(C(=O)CO)CC4)c(C#N)c3)n2)cn1", "note": "[Example Compound 221, 2-{[1-(Hydroxyacetyl)piperidin-4-yl]oxy}-5-{2-[(6-methylpyridin-3-yl)amino]pyrimidin-4-yl}benzonitrile]", "IC50": "< 5"}, {"smiles": "COc1cc(Nc2nccc(-c3ccc(OC4CCN(C(=O)CO)CC4)c(C#N)c3)n2)ccn1", "note": "[Example Compound 222, 2-{[1-(Hydroxyacetyl)piperidin-4-yl]oxy}-5-{2-[(2-methoxypyridin-4-yl)amino]pyrimidin-4-yl}benzonitrile]", "IC50": "< 5"}, {"smiles": "Cc1cc(Nc2nccc(-c3ccc(O[C@@H]4CCN(C(=O)CO)C4)c(C#N)c3)n2)ccn1", "note": "[Example Compound 223, 2-{[(3R)-1-(Hydroxyacetyl)pyrrolidin-3-yl]oxy}-5-{2-[(2-methylpyridin-4-yl)amino]pyrimidin-4-yl}benzonitrile]", "IC50": "< 5"}, {"smiles": "N#Cc1cc(-c2ccnc(Nc3ccnc(N4CC(O)C4)c3)n2)ccc1OCC1CC1", "note": "[Example Compound 241, 2-(Cyclopropylmethoxy)-5-(2-{[2-(3-hydroxyazetidin-1-yl)pyridin-4-yl]amino}pyrimidin-4-yl)benzonitrile]", "IC50": "< 5"}]}, {"target": "T1, IKKε", "assay": "In-vitro IKKε kinase assay (radiolabelled ATP, filterplate)", "assay_type": "biochemical", "settings": "in-vitro IKKε kinase inhibition assays; given as 0.005 μM (5 nM); read-out: IKKε kinase inhibitory activity (IC50 value)", "experimental": "as §1", "units": {"IC50": "nM"}, "values": [{"smiles": "COC1CN(C(=O)c2csc(Nc3nccc(-c4ccc(OC5CCOCC5)c(C#N)c4)n3)n2)C1", "note": "[Example Compound 104, 5-[2-({4-[(3-Methoxyazetidin-1-yl)carbonyl]-1,3-thiazol-2-yl}amino)pyrimidin-4-yl]-2-(tetrahydro-2H-pyran-4-yloxy)benzonitrile]", "IC50": "< 5"}, {"smiles": "COc1cc(Nc2nccc(-c3ccc(O[C@@H]4CCN(C(=O)CO)C4)c(C#N)c3)n2)ccn1", "note": "[Example Compound 121, 2-{[(3R)-1-(Hydroxyacetyl)pyrrolidin-3-yl]oxy}-5-{2-[(2-methoxypyridin-4-yl)amino]pyrimidin-4-yl}benzonitrile]", "IC50": "< 5"}, {"smiles": "C[C@H](O)C(=O)N1CCC(Oc2ccc(-c3ccnc(Nc4ccc(N5CCOCC5)nc4)n3)cc2C#N)CC1", "note": "[Example Compound 127, 2-({1-[(2S)-2-Hydroxypropanoyl]piperidin-4-yl}oxy)-5-(2-{[6-(morpholin-4-yl)pyridin-3-yl]amino}pyrimidin-4-yl)benzonitrile]", "IC50": "< 5"}, {"smiles": "COC1CN(c2cc(Nc3nccc(-c4ccc(NC(=O)C5CC5)c(C#N)c4)n3)ccn2)C1", "note": "[Example Compound 142, N-[2-Cyano-4-(2-{[2-(3-methoxyazetidin-1-yl)pyridin-4-yl]amino}pyrimidin-4-yl)phenyl]cyclopropanecarboxamide]", "IC50": "< 5"}, {"smiles": "Cc1ccc(Nc2nccc(-c3ccc(NC(=O)C4CC4)c(C#N)c3)n2)cn1", "note": "[Example Compound 149, N-(2-Cyano-4-{2-[(6-methylpyridin-3-yl)amino]pyrimidin-4-yl}phenyl)cyclopropanecarboxamide]", "IC50": "< 5"}]}]}
